These results are taken from patent US20240327334A1, “Covalent Inhibitors As Antiviral Agents” (Enanta Pharmaceuticals, Inc., priority 2022, published 2024).

The target of test [1] is SARS-CoV-2 Papain-like (PLpro) protease (Severe acute respiratory syndrome coronavirus 2, UniProt P0DTD1). Kind of test: SARS-CoV-2 Papain-like (PLpro) protease biochemical enzyme inhibition assay (ubiquitin-fluorophore substrate, Ub-R110). Particulars: Ub-R110 substrate; run in duplicate; read-out: PLpro IC50.
The next test relates to SARS-CoV-2 replicon. Put plainly: microbe, parasite or virus in culture. The test is classed as cell-based. The note with it: Severe acute respiratory syndrome coronavirus 2, Huh-7.

Bounds are passed on as bounds.

What is called IC50 is the concentration at which inhibition is half-maximal. A word on the EC50: it is the concentration at which the effect is half-maximal. Read a low EC50 as greater potency.

On to `N#CCNC(=O)C(=O)NCc1ccccc1C(=O)NC1(c2ccc(F)c3ccccc23)CC1` [Example 121], for which the concentration for half-maximal inhibition (IC50) in test [1] was below 100 nM. The same molecule registered an EC50 with SARS-CoV-2 replicon below 1000 nM.
The like results for `N#CCNC(=O)C(=O)NCc1ccccc1C(=O)NC1(c2cc(C#N)cc(-c3cccs3)c2)CC1` [Example 127] were, in that order, below 100 nM and 1000 to 10000 nM.
The corresponding values for `C#CCNC(=O)C(=O)NCc1ccccc1C(=O)NC1(c2cc(C#N)cc(-c3cccs3)c2)CC1` [Example 128] are below 100 nM and below 1000 nM.
The like results for `N#Cc1cc(-c2cccs2)cc(C2(NC(=O)c3ccccc3CNC(=O)C(=O)NCC#Cc3nccs3)CC2)c1` [Example 129] were, in that order, below 100 nM and below 1000 nM.
For the molecule `Cc1nn(C2CC2)c(C)c1-c1cc(Cl)cc(C2(NC(=O)c3ccccc3CNC(=O)C(=O)NCC#N)CC2)c1` [Example 130], the IC50 in test [1] is below 100 nM. The molecule further had a concentration for a half-maximal effect (EC50) in the test with SARS-CoV-2 replicon of 1000 to 10000 nM.
The corresponding values for `C#CCNC(=O)C(=O)NCc1ccccc1C(=O)NC1(c2cc(Cl)cc(-c3c(C)nn(C4CC4)c3C)c2)CC1` [Example 131] are below 100 nM and below 1000 nM.
The corresponding values for `Cc1nn(C2CC2)c(C)c1-c1cc(Cl)cc(C2(NC(=O)c3ccccc3CNC(=O)C(=O)NCC#Cc3nccs3)CC2)c1` [Example 132] are below 100 nM and below 1000 nM.
Turning to `N#CCNC(=O)C(=O)NCc1ccccc1C(=O)NC1(c2cc(-c3cnn(C4CC4)c3)cc(C3CC3)c2)CC1` [Example 133], the IC50 in test [1] was below 100 nM. In addition, the concentration for a half-maximal effect (EC50) in the test with SARS-CoV-2 replicon lay within 1000 to 10000 nM.
With `O=C(NCC#Cc1nccs1)C(=O)NCc1ccccc1C(=O)NC1(c2cc(-c3cnn(C4CC4)c3)cc(C3CC3)c2)CC1` [Example 134], the half-maximal inhibitory concentration (IC50) in test [1] was below 100 nM. For the same molecule, the EC50 in the test on SARS-CoV-2 replicon was below 1000 nM.
With `O=C(NCC#Cc1ccc(F)cn1)C(=O)NCc1ccccc1C(=O)NC1(c2cc(-c3cnn(C4CC4)c3)cc(C3CC3)c2)CC1` [Example 135], the concentration for half-maximal inhibition (IC50) in test [1] is below 100 nM. The molecule also returned an EC50 with SARS-CoV-2 replicon below 1000 nM.
The like results for `O=C(NCC#Cc1nccs1)C(=O)NCc1ccccc1C(=O)NC1(c2cc(F)cc(-c3ccn(C(F)F)n3)c2)CC1` [Example 136] were, in that order, below 100 nM and below 1000 nM.
The corresponding values for `O=C(NCC#Cc1ncco1)C(=O)NCc1ccccc1C(=O)NC1(c2ccc3ccccc3c2)CC1` [Example 137] are below 100 nM and below 1000 nM.
Turning to `O=C(NCC#Cc1nccs1)C(=O)NCc1ccccc1C(=O)NC1(c2cc(F)cc(C(=O)N3CCOCC3)c2)CC1` [Example 138], the concentration for half-maximal inhibition (IC50) in test [1] is below 100 nM. The molecule further yielded an EC50 in the test on SARS-CoV-2 replicon below 1000 nM.
On to `Cc1nn(C2CC2)c(C)c1-c1cc(F)cc(C2(NC(=O)c3ccccc3CNC(=O)C(=O)NCC#Cc3nccs3)CC2)c1` [Example 139], for which the IC50 in test [1] is below 100 nM. The molecule also yielded an EC50 in the test with SARS-CoV-2 replicon below 1000 nM.
On to `Cc1nn(C(F)F)c(C)c1-c1cc(F)cc(C2(NC(=O)c3ccccc3CNC(=O)C(=O)NCC#Cc3nccs3)CC2)c1` [Example 140], for which the IC50 in test [1] is below 100 nM. This molecule had an EC50 with SARS-CoV-2 replicon below 1000 nM.
Regarding `C[C@@H](C#Cc1ncc(F)cn1)NC(=O)C(=O)NCc1ccccc1C(=O)NC1(c2cc(F)cc(-c3cnn(C4CC4)c3)c2)CC1` [Example 144], the half-inhibitory concentration (IC50) in test [1] was below 100 nM. In the test on SARS-CoV-2 replicon, this molecule displayed a 50% effective concentration (EC50) below 1000 nM.
The corresponding values for `C[C@@H](C#Cc1ccc(C#N)cc1F)NC(=O)C(=O)NCc1ccccc1C(=O)NC1(c2cc(F)cc(-c3cnn(C4CC4)c3)c2)CC1` [Example 145] are below 100 nM and below 1000 nM.
The like results for `CC[C@@H](C#Cc1nccs1)NC(=O)C(=O)NCc1ccccc1C(=O)NC1(c2ccc3nn(C)cc3c2)CC1` [Example 146] were, in that order, below 100 nM and below 1000 nM.
The corresponding values for `Cn1cc2cc(C3(NC(=O)c4ccccc4CNC(=O)C(=O)NCC#Cc4ccc(S(C)(=O)=O)cc4F)CC3)ccc2n1` [Example 147] are below 100 nM and below 1000 nM.
For `COc1cc(C2(NC(=O)c3ccccc3CNC(=O)C(=O)N[C@@H](C)C#Cc3ccc(S(C)(=O)=O)cc3F)CC2)cc2cn(C3CC3)nc12` [Example 149], the 50% inhibitory concentration (IC50) in test [1] is below 100 nM. The molecule further came in with a half-maximal effective concentration (EC50) with SARS-CoV-2 replicon below 1000 nM.
On to `O=C(NC/C=C1\CCOC1=O)C(=O)NCc1ccccc1C(=O)NC1(c2cc(Br)cc3ccccc23)CC1` [Example 151], for which, in test [1], the IC50 is below 100 nM. Also, the 50% effective concentration (EC50) in the test with SARS-CoV-2 replicon was below 1000 nM.
The corresponding values for `N#C/C=C/CNC(=O)C(=O)NCc1ccccc1C(=O)NC1(c2cc(Br)cc3ccccc23)CC1` [Example 152] are below 100 nM and below 1000 nM.
The like results for `O=C(NC/C=C1\CCOC1=O)C(=O)NCc1ccccc1C(=O)NC1(c2cccc3ccccc23)CC1` [Example 153] were, in that order, below 100 nM and below 1000 nM.
In the case of `O=C(NCC#CBr)C(=O)NCc1ccccc1C(=O)NC1(c2cc(Br)cc3ccccc23)CC1` [Example 154], in test [1], the half-maximal inhibitory concentration (IC50) is below 100 nM. Also, in the test with SARS-CoV-2 replicon, the EC50 was below 1000 nM.
The corresponding values for `CS(=O)(=O)/C=C/CNC(=O)C(=O)NCc1ccccc1C(=O)NC1(c2cccc3ccccc23)CC1` [Example 155] are below 100 nM and below 1000 nM.
The like results for `C#C[C@H](C)NC(=O)C(=O)NCc1ccccc1C(=O)NC1(c2cccc3ccccc23)CC1` [Example 156] were, in that order, below 100 nM and below 1000 nM.
The like results for `O=C(NCC#Cc1cncnc1)C(=O)NCc1ccccc1C(=O)NC1(c2cccc3ccccc23)CC1` [Example 158] were, in that order, below 100 nM and below 1000 nM.
On to `O=C(NCC#Cc1cscn1)C(=O)NCc1ccccc1C(=O)NC1(c2cccc3ccccc23)CC1` [Example 159], for which the IC50 in test [1] is below 100 nM. This molecule registered an EC50 in the test on SARS-CoV-2 replicon below 1000 nM.
The like results for `O=C(NCC#Cc1nccs1)C(=O)NCc1ccccc1C(=O)NC1(c2cccc3ccccc23)CC1` [Example 160] were, in that order, below 100 nM and below 1000 nM.
The corresponding values for `CS(=O)(=O)/C=C/CNC(=O)C(=O)NCc1ccccc1C(=O)NC1(c2ccc3ccccc3c2)CC1` [Example 161] are below 100 nM and below 1000 nM.
The like results for `O=C(NCC#CBr)C(=O)NCc1ccccc1C(=O)NC1(c2ccc3ccccc3c2)CC1` [Example 163] were, in that order, below 100 nM and below 1000 nM.
In the case of `O=C(NCC#Cc1cscn1)C(=O)NCc1ccccc1C(=O)NC1(c2ccc3ccccc3c2)CC1` [Example 165], the 50% inhibitory concentration (IC50) in test [1] was below 100 nM. In addition, the 50% effective concentration (EC50) in the test on SARS-CoV-2 replicon is 1000 to 10000 nM.
The corresponding values for `O=C(NCC#Cc1cncnc1)C(=O)NCc1ccccc1C(=O)NC1(c2ccc3ccccc3c2)CC1` [Example 166] are below 100 nM and below 1000 nM.
As to `O=C(NCC#Cc1nccs1)C(=O)NCc1ccccc1C(=O)NC1(c2ccc3ccccc3c2)CC1` [Example 167], in test [1], the IC50 was below 100 nM. This molecule also gave an EC50 with SARS-CoV-2 replicon below 1000 nM.
The like results for `O=C(NCC#Cc1ncccn1)C(=O)NCc1ccccc1C(=O)NC1(c2ccc3ccccc3c2)CC1` [Example 168] were, in that order, below 100 nM and below 1000 nM.
The corresponding values for `N#Cc1ccc(C#CCNC(=O)C(=O)NCc2ccccc2C(=O)NC2(c3ccc4ccccc4c3)CC2)cc1` [Example 171] are below 100 nM and below 1000 nM.
On to `O=C(NCC#Cc1cnccn1)C(=O)NCc1ccccc1C(=O)NC1(c2ccc3ccccc3c2)CC1` [Example 172], for which, in test [1], the IC50 was below 100 nM. For the same molecule, the half-maximal effective concentration (EC50) in the test on SARS-CoV-2 replicon is below 1000 nM.
